Laboratory results as given in patent US11266655B2, “Methods and compositions for treating urea cycle disorders” (Camp4 Therapeutics Corporation, priority 2019, dated 2022).
Counter-ions that a name gives are not always drawn. Like-named read-outs stand apart in the source and are kept apart here.

Assays:
[1] = test system: ASS1; assay: RNA-seq of compound-treated primary human hepatocytes, ASS1 expression; assay type: cell-based; conditions: primary human hepatocytes; for Relative ASS1 level vs Untreated (±Standard Deviation): triplicate (Table 15, FIG. 7)
[2] = test system: NAGS; assay type: cell-based, human
[3] = test system: ARG1; assay: RNA-seq of compound-treated primary human hepatocytes, ARG1 expression; assay type: cell-based; conditions: for Relative ARGI level vs Untreated (±Standard Deviation): triplicate (Table 17, FIG. 9)
[4] = test system: SLC25A15; assay: RNA-seq of compound-treated primary human hepatocytes, SLC25A15 expression; assay type: cell-based
[5] = test system: urea cycle genes; assay: RNA-seq of primary human hepatocytes, compounds that modulate multiple urea cycle-related genes; assay type: cell-based; conditions: primary human hepatocytes, RNA-seq; for Up-regulated Genes: urea cycle-related genes significantly increased (Table 10)
[6] = test system: CPS1; assay: RNA-seq of compound-treated primary human hepatocytes, CPS1 expression; assay type: cell-based; conditions: primary human hepatocytes, triplicate (Table 19, FIG. 11)
[7] = primary human hepatocytes, RNA-seq (Table 6)
[8] = 0.3 μM, primary human hepatocytes, triplicate (Table 21, FIG. 13)
[9] = 3 μM, primary human hepatocytes
[10] = Example 11, relative mRNA vs DMSO
[11] = 10 μM, primary human hepatocytes, triplicate (Table 24, FIG. 16A-B)

CN(C)[C@@H]1C(O)=C(C(N)=O)C(=O)[C@@]2(O)C(O)=C3C(=O)c4c(O)c(NC(=O)CN5CCCC5)cc(F)c4C[C@H]3C[C@@H]12 [TP-434 (Eravacycline), Eravacycline]
Fold change (Log 2) vs untreated, ASS1 expression ([1]; RNA-seq (Table 4)): 0.76 Log 2
Fold change (Log 2) vs untreated, NAGS expression [2, 7]: 1.5 Log 2

NC(=O)c1ccc(I)c([N+](=O)[O-])c1 [Iniparib (BSI-]
Relative NAGS level vs Untreated (±Standard Deviation) [2]: 1.35 ± 0.27

TNF-a
Fold change (Log 2) vs untreated, ARG1 expression ([3]; primary human hepatocytes, RNA-seq (Table 7)): 1.87 Log 2

O=C(N[C@H]1CN2CCC1CC2)c1cc2cccc(Cl)c2s1 [EVP-6124 (hydrochloride) (encenicline), encenicline]
Fold change (Log 2) vs untreated, NAGS expression [2, 7]: 0.75 Log 2

O=C(NCCCn1ccnc1)c1cc(-c2ccco2)on1 [SKL2001]
Fold change (Log 2) vs untreated, NAGS expression [2]: 0.95 Log 2

CCc1ccc(CCOc2ccc(CC3SC(=O)NC3=O)cc2)nc1 (centres unmarked) [Pioglitazone HCl]
Relative NAGS level vs Untreated (±Standard Deviation) [2, 8]: 1.33 ± 0.02

CN1CCN(CCCN2c3ccccc3Sc3ccc(C(F)(F)F)cc32)CC1 [TFP, Trifluoperazine]
Fold change (Log 2) vs untreated, NAGS expression [2, 7]: 0.58 Log 2

CC(C)c1cc(CNc2nc(Nc3cc(C4CC4)[nH]n3)cc(N3CCN(C)CC3)n2)on1 [XL228]
Relative ASS1 level vs Untreated (±Standard Deviation) ([1]; 1 μM): 1.83 ± 0.02
Relative ASS1 level vs Untreated (±Standard Deviation) ([1]; 3 μM): 1.45 ± 0.10
Relative ASS1 level vs Untreated (±Standard Deviation) ([1]; 10 μM): 2.05 ± 0.00
Relative ARGI level vs Untreated (±Standard Deviation) ([3]; 0.3 μM, primary human hepatocytes): 1.47 ± 0.11
Relative ARGI level vs Untreated (±Standard Deviation) ([3]; 1 μM, primary human hepatocytes): 2.05 ± 0.11
Relative ARGI level vs Untreated (±Standard Deviation) [3, 9]: 2.15 ± 0.04
increase in ARG1 gene expression (Tables 17, 18, FIG. 9, 10) [3, 10]: greatest increase
Increase in SLC25A15 gene expression (qualitative) [4, 10]: greatest increase

C[C@]12C=CC(=O)C=C1CC[C@@H]1[C@@H]2C(=O)C[C@@]2(C)[C@H]1CC[C@]2(O)C(=O)CO [prednisone]
Fold change (Log 2) vs untreated, NAGS expression [2, 7]: 1 Log 2
number of urea cycle genes whose expression was significantly up-regulated [5]: three
Up-regulated Genes [5]: CPS1, NAGS, ARG1

CCn1c(=O)c(-c2ccc(-c3cncs3)cc2Cl)cc2cnc(Nc3ccc(N4CCN(C)CC4)cc3)nc21 [FRAX597]
number of urea cycle genes whose expression was significantly up-regulated [5]: five
Up-regulated Genes [5]: CPS1, ASS1, OTC, ARG1, SLC25A15

O=C(NOCCO)c1cc(CN2OCCCC2=O)c(F)c(F)c1Nc1ccc(I)cc1F [Compound R04987655]
Relative CPS1 level vs Untreated (±Standard Deviation) ([6]; 1 μM): 1.46 ± 0.27
Relative CPS1 level vs Untreated (±Standard Deviation) ([6]; 10 μM): 1.33 ± 0.21

N#CC(c1ccnc(OCc2ccc(CN3CCOCC3)cc2)n1)c1nc2ccccc2s1 (centres unmarked) [AS602801]
Relative SLC25A15 level vs Untreated (±Standard Deviation) ([4]; 10 µM): 2.22 ± 0.24

CCCC(=O)O[C@@H]1[C@@H](C)[C@@]2(O)[C@@H](C=C(CO)C[C@]3(O)C(=O)C(C)=C[C@@H]23)[C@@H]2C(C)(C)[C@]12OC(=O)CCC [Phorbol 12, 13-dibutyrate]
Fold change (Log 2) vs untreated, NAGS expression [2, 7]: 0.62 Log 2

CCN(CC)CCNC(=O)c1c(C)[nH]c(/C=C2\C(=O)Nc3ccc(F)cc32)c1C [Sunitinib]
Relative ASS1 level vs Untreated (±Standard Deviation) ([1]; 3 μM): 2.25 ± 0.45
Relative ASS1 level vs Untreated (±Standard Deviation) ([1]; 10 μM): 2.70 ± 0.37
Relative NAGS level vs Untreated (±Standard Deviation) [2, 8]: 1.40 ± 0.03
Relative NAGS level vs Untreated (±Standard Deviation) ([2]; 1 μM, primary human hepatocytes, triplicate (Table 21, FIG. 13)): 1.63 ± 0.42
Relative ARGI level vs Untreated (±Standard Deviation) ([3]; 10 μM, primary human hepatocytes): 1.36 ± 0.01
Relative SLC25A15 level vs Untreated (±Standard Deviation) ([4]; 0.3 μM, primary human hepatocytes, triplicate (Table 24, FIG. 16A-B)): 1.32 ± 0.08
Relative SLC25A15 level vs Untreated (±Standard Deviation) ([4]; 3 μM, primary human hepatocytes, triplicate (Table 24, FIG. 16A-B)): 2.36 ± 0.20
Relative SLC25A15 level vs Untreated (±Standard Deviation) [4, 11]: 2.43 ± 0.29

O=C1CCC(N2C(=O)c3ccccc3C2=O)C(=O)N1 (centres unmarked) [Thalidomide]
Fold change (Log 2) vs untreated, NAGS expression [2, 7]: 1.1 Log 2
number of urea cycle genes whose expression was significantly up-regulated [5]: five
Up-regulated Genes [5]: NAGS, CPS1, ALS, OTC, ARG1

NC(=O)c1ccc(I)c([N+](=O)[O-])c1 [Iniparib]
Relative CPS1 level vs Untreated (±Standard Deviation) ([6]; 3 μM): 1.44 ± 0.01
Relative NAGS level vs Untreated (±Standard Deviation) [2, 8]: 1.41 ± 0.00
Relative ARGI level vs Untreated (±Standard Deviation) [3, 9]: 1.32 ± 0.15

Cc1cc(C)c(/C=C2\C(=O)Nc3ccccc32)[nH]1 [Semaxanib]
Fold change (Log 2) vs untreated, NAGS expression [2, 7]: 2 Log 2

O=C(NOCCO)c1cc(CN2OCCCC2=O)c(F)c(F)c1Nc1ccc(I)cc1F [RO4987655)]
Relative SLC25A15 level vs Untreated (±Standard Deviation) [4, 11]: 1.31 ± 0.13
